# Experimental data reported in patent US20240285670A1, “THERAPEUTIC TREATMENT OF TUMORS BY BLOCKING THE HEME SYNTHESIS-EXPORT AXIS” (Università degli Studi di Torino, priority 2021, published 2024).
# Legend:
# [1] = test system: BTECs; experiment: Activity of mitochondrial ETC complexes I-IV in BTECs; assay type: cell-based, human; details: FLVCR1a-silenced vs scramble shRNA BTECs
# From the text: (§1) Results were expressed as nmol NAD*/min/mg mitochondrial protein for complex I, nmol reduced cytochrome c/min/mg mitochondrial protein for complexes II-III, nmol oxidized cytochrome c/min/mg mitochondrial protein for complex IV. Data represent mean±SEM, n=3. For statistical analyses, an unpaired Student's t-test was used; *=p<0.05, **=p<0.01, *=p<0.001. […] Results are expressed as nmol/mg mitochondrial proteins. Data represent mean±SEM, n=3. For statistical analyses, an unpaired Student's t-test was used; *=p<0.05. […] Results are expressed as pmol CO2/h/mg protein. Data represent mean±SEM, n=3. For statistical analyses, an unpaired Student's t-test was used; **=p<0.01. […] Results were expressed as nmol NAD*/min/mg mitochondrial protein for complex I, nmol reduced cytochrome c/min/mg mitochondrial protein for complexes II-III, nmol oxidized cytochrome c/min/mg mitochondrial protein for complex IV. […] Results are expressed as nmol/mg mitochondrial proteins. […] Results are expressed as pmol CO2/h/mg protein. […] (H) TCA cycle enzymes activities are reported in boxes and expressed as mU/mg mitochondrial proteins. […] Results were expressed as nmol NAD^+/min/mg mitochondrial protein for complex I, nmol reduced cytochrome c/min/mg mitochondrial protein for complexes II-III, nmol oxidized cytochrome c/min/mg mitochondrial protein for complex IV. […] Results are expressed as nmol/mg mitochondrial proteins. […]
# [2] = test system: BTECs; experiment: TCA cycle flux in BTECs; assay type: cell-based, human; details: FLVCR1a-silenced vs scramble shRNA BTECs
# From the text: as §1
substance,measurement,setting,value
"FLVCR1a shRNA: shRNA specifically down-regulating FLVCR1a without targeting FLVCR1b; pLKO.1 lentiviral clone TRCN0000059599, antisense SEQ ID No.: 2 (antisense TTGCTAATGATGCTGTACTGG; sense CCAGTACAGCATCATTAGCAA)",activity of ETC complexes,[1],enhanced activity of ETC complexes
same,TCA cycle flux,[2],increased TCA cycle flux
